According to US8404858B2, “Agent for regeneration and/or protection of nerves” (Ono Pharmaceutical Co., Ltd., priority 2005, dated 2013):

Key:
rat EP2 receptor = molecular target: T1, rat EP2 receptor (Rattus norvegicus, UniProt Q62928); test: Measurement of EP2 agonist activity (intracellular cyclic AMP concentration, cAMP assay); assay type: cell-based; details: rEP2-CHO cell, maximum = PGE2 (1 μmol/l)
T1 construct: expressed in transfected cells; host or cells: CHO cells (rEP2-CHO)
Experimental: (1-1) Measurement of EP2 Agonist Activity (Measurement of Intracellular Cyclic AMP (cAMP) Concentration (cAMP Assay))
(§1) A rat EP2 receptor forced expression cell (rEP2-CHO cell) was incubated in an incubator (5% CO2) of 37° C. using Minimum Essential Medium Eagle (Sigma, M4526) to which 10% fetal bovine serum (FBS, JRH) and 1/100 total volume of Penicillin Streptomycin Glutamine (GIBCO, 10378-016) had been added. The cells which reached confluent were exfoliated using trypsin and suspended in a medium (MEM medium containing 10% FBS) to a density of 2.0×10^5 cells per ml. The thus prepared suspension was seeded into a 24 well plate to be 1.0×10^5 cells per well portions and incubated for 48 hours. […]
The frozen sample was thawed and transferred to a micro centrifugation tube to be centrifuged (15,000 rpm, 4° C., 3 minutes). […] Using the upper layer as a sample, cAMP concentration was measured by a cAMP EIA system (cAMP Enzyme Immunoassay System, Amersham Biosciences).
Activity strengths of respective compounds were compared by calculating their EC50 values. The EC50 value was calculated by regarding changed amount of the cAMP concentration when PGE2 (1 μmol/l) was added instead of each compound as the maximum changed amount, and defining the value which gives half of the changed amount as the concentration of each compound.

rat EP3 receptor = molecular target: T2, rat EP3 receptor (Rattus norvegicus, UniProt P34980); test: Measurement of EP3 agonist activity (intracellular calcium concentration real time imaging, Ca2+ assay); assay type: cell-based; details: rEP3-CHO cell, maximum = PGE2 (100 nmol/L)
T2 construct: expressed in transfected cells; host or cells: CHO cells (rEP3-CHO)
T2 sequence (P34980 1-365): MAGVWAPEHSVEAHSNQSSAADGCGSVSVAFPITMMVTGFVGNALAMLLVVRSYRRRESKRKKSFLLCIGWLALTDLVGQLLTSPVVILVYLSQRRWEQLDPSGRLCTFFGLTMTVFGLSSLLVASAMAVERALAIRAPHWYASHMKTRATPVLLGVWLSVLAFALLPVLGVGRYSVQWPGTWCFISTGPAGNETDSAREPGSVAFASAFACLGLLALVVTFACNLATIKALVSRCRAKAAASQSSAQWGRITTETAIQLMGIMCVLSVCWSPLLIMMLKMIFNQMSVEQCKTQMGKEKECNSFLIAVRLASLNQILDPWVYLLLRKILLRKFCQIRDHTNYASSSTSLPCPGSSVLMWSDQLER
Experimental: (1-2) Measurement of EP3 Agonist Activity (Intracellular Calcium Concentration Real Time Imaging (Ca^2+ Assay))
as §1, with “EP3” for “EP2”, “(rEP3-CHO” for “(rEP2-CHO”, “1/100 of” for “1/100”, “1.0×10^5” for “2.0×10^5”, “ml.” for “ml. The thus prepared suspension was seeded into a 24 well plate to be 1.0×10^5 cells per well portions and incubated for 48 hours.”
After the incubation, the culture fluid was removed from each well of the plate and a Fura2 loading buffer (10% FBS-containing MEM medium supplemented with Fura2-AM (5 μmol/L), HEPES (10 mmol/L), probenecid (2.5 mmol/L) and indometacin (20 μmol/L)) was added thereto, followed by incubating in an incubator (5% CO2) of 37° C. […] Measurement of the fluorescence intensity was continuously carried out for 3 minutes after addition of the compound.
Activity intensity of each compound was compared by calculating their EC50 values. The EC50 value was calculated by regarding mean of the changed amount of calcium concentration when PGE2 (100 nmol/L) was added instead of each compound as the maximum changed amount, and defining the value which gives half of the changed amount as the concentration of each compound. […]

rat = test: Measurement of the cauda equina blood flow and the blood pressure; assay type: in vivo; details: urethane-anesthetized rat, continuous infusion through caudal vein for 30 minutes
Experimental: (3) The Measurement of the Cauda Equina Blood Flow and the Blood Pressure
1.5 g/kg of urethane was administered intraperitoneally to the rat to be anesthetized, and the catheter (for measurement of blood pressure and ventricular rate) was placed in left carotid artery in supine position. The rat was reversed to prone position and the lumbar part was incised in the median line. The laminectomy was given to the fifth lumbar vertebra and the spinal cord (cauda equina) was exposed. The cauda equina blood flow was measured by the laser-Doppler flowmetry (OMEGAFLD FLO-NI and ADVANCE LASER FLOWMETER ALF21N, OMEGA WAVE Inc.) through a noncontact probe (ST-N type, OMEGA WAVE Inc.) and recorded with LINEARCORDER (Graphtech). The systemic blood pressure and the ventricular rate were measured from a left carotid artery with amplifier for the pressure measurement (GOULD) through a pressure transducer and recorded with LINEARCORDER (Graphtech). After confirming each parameter of blood pressure, ventricular rate and blood flow was stabilized, the test compound was administrated by continuous infusion through the winged needle placed in caudal vein for 30 minutes. It observed until 30 minutes after the administration and the increase rate of the cauda equina blood flow was calculated.
The increase rate of the cauda equina blood flow (%)=(B−A)/A×100 […]

cauda equina nerve = test: Measurement of cauda equina nerve repair acceleration activity (rat cauda equina nerve compression gait disturbance model); assay type: in vivo; details: intravenous continuous administration 2 hours×twice/day, 2 weeks, in comparison with the physiological saline administration group
Experimental: (2) Measurement of Cauda Equina Nerve Repair Acceleration Activity
A rat cauda equina nerve compression gait disturbance model was prepared by the method of Takenobu et al. (J. Neurosci. Methods, 104 (2), 191-198, 2002). Namely, a rat was anesthetized with pentobarbital sodium and, after shaving its dorsal region, fixed at abdominal position. After disinfection of the dorsal region with chlorhexidine gluconate (5% hibitane liquid; Sumitomo Pharmaceuticals), the waist was median-incised to expose the spinal column. After excision of the fifth lumbar gemmule, a silicon rubber of 1×4×1.25 mm (height×length×width) was inserted into the fourth lumbar and sixth lumbar spinal canals from a small hole on the vertebral arch bored by a mini drill. For the purpose of avoiding infections, benzylpenicillin potassium (Crystalline Penicillin G Potassium Meiji; Meiji Seika Kaisha, Ltd.) was added dropwise to the incised part and intramuscularly injected into the thigh parts. The muscle and skin of the incised part were stitched with a surgical suture, and Iodine Tincture was applied to the stitched part. Animals of the sham operation group were prepared in accordance with the aforementioned method, but the insertion of silicon rubber was not carried out. […]

T1 sequence (Q62928 whole entry): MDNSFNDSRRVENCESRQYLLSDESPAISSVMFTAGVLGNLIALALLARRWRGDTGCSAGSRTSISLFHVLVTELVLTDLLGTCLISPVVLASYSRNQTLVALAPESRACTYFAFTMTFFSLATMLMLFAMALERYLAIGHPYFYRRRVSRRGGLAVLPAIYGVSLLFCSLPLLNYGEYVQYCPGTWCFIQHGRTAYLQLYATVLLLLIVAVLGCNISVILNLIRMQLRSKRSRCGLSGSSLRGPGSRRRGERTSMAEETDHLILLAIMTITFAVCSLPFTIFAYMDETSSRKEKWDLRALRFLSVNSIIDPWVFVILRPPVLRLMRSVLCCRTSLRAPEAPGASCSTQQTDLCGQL

EC50 (rat EP2 receptor) [nM]	EC50 (rat EP3 receptor) [nM]	SMILES	decrease of the blood pressure (rat; left carotid artery) [mmHg]	increase rate of the cauda equina blood flow (rat; observed until 30 minutes after) [%]	appearance rate of regeneration nerve fascicles (cauda equina nerve)
11	31	C[C@@](O)(C/C=C/[C@H]1CCC(=O)[C@@H]1CCSc1nc(C(=O)O)cs1)CC1CCCCC1 [compound 17, 2-[(2-{(1R,2R)-2-[(1E,4S)-5-cyclohexyl-4-hydroxy-4-methyl-1-penten-1-yl]-5-oxocyclopentyl}ethyl)thio]-1,3-thiazole-4-carboxylic acid]	5	33	
16	99	O=C(O)c1csc(SCCN2C(=O)OC[C@@H]2/C=C/[C@@H](O)C2(CCCCF)CCC2)n1 [compound A, 2-{[2-((4S)-4-{(1E,3R)-3-[1-(4-fluorobutyl)cyclobutyl]-3-hydroxy-1-propenyl}-2-oxo-1,3-oxazolidin-3-yl)ethyl]sulfanyl}-1,3-thiazole-4-carboxylic acid]			significantly high appearance rate of regeneration nerve fascicles
